Columns and labels:
R. corallina cells = conditions: for induction of catechol 2,3-dioxygenase activity: R. corallina, meta pathway marker; for ring cleavage dioxygenase pathway induced (meta / ortho): crude enzyme extracts of cells grown on MMRN supplemented with the xenobiotic
Description: (§1) “MMRN” is prepared as a multicomponent stock to avoid the production of uncharacterised compounds during autoclaving. A “basic salts” stock is prepared containing 6 g/L Na2HPO4; 3 g/L KH2PO4; 1 g/L NaCl; 4 g/L (NH4)2SO4; adjusted to pH 7.4 and made up to 989 mls with distilled water and autoclaved. A “100×A salts” solution is prepared consisting of 20 g/L MgSO4; 2000 mg/L FeSO4.7H2O; 200 mg/L FeCl3; 200 mg/L MnSO4.H2O is prepared in distilled water and autoclaved. A “1000×B salts” solution consisting of 500 mg/L ZnSO4.7H2O; 200 mg/L CuCl2·2H2O; 200 mg/L Na2B4O7.10H2O; 100 mg/L (NH4)7Mo6O24.4H2O is prepared in distilled water and autoclaved. To prepare 1 litre of MMRN, sterile solutions of 989 mls basic salts, 10 mls 100×A salts, 1 ml 1000×B salts are combined. For solid media, agar is added to 1.4% w/v. Carbon-energy sources are supplemented to 80 μM final concentrations for soluble molecules, or as vapour for insoluble molecules (where their concentration is decided by their individual partition coefficients generally ranging from 3 to 40 μM). Petri plates or liquid cultures are incubated at 28° C. to 30° C. for up to 72 hours to accumulate sufficient biomass for genetic and biochemical testing.

R. corallina [1] = assay: Genetic induction of the toluene degradative pathway, substrate supplied as vapour; type: cell-based, Rhodococcus corallina; conditions: level in water
Description: as §1

R. corallina [2] = assay: Growth-inducing substrate test on MMRN; type: cell-based, Rhodococcus corallina
Excerpt: Mycolic acid-containing bacteria may then be screened for specific hydrocarbon-inducible catabolic pathways using MMRN supplemented with the target xenobiotic pollutant. Strains for which the target molecule is growth inducing may then be isolated and used to as a source of genetic regulatory elements for biosensors or as specific biocatalytic functions. Using this protocol mycolic acid containing bacteria have been and may be rapidly identified with novel and useful catabolic properties. This approach is also useful for identification and isolation of mycolic acid containing bacteria with biocatalytic properties.

Compound | induction of catechol 2,3-dioxygenase activity (R. corallina cells) | ring cleavage dioxygenase pathway induced (meta / ortho) (R. corallina cells) | level at which genetic induction of the toluene degradative pathway occurs (R. corallina [1]) | acts as growth inducing substrate (R. corallina [2])
O=C(O)c1ccccc1 [benzoate] | not | exclusively induces the ortho pathway |  | 
Oc1ccccc1 [phenol] |  | exclusively induces the ortho pathway |  | 
Cc1ccccc1 [toluene] | induced | induced the meta pathway | less than 200 ppm | 
xylene |  |  |  | does not act as a growth inducing substrate
